# Laboratory results from US20060276465A1, “1,2-di(cyclic) substituted benzene compounds” (Eisai R&D Management Co., Ltd., priority 2003, published 2006).
# Where a name gives a salt, the structure may show the parent alone.
# Key:
# [1] = system: Jurkat cells; assay: Jurkat cell adhesion system (adhesion to immobilized human fibronectin, PMA-stimulated); type: cell-based; details: concentration inhibiting by 50% the PMA-stimulated increase in the number of adhered Jurkat cells on human fibronectin, 45-60 minutes, 37° C.
# Method: Evaluation of Compounds in Jurkat Cell Adhesion System
# <Immobilization of Human Fibronectin in 96-Well Plate>
# Human fibronectin (Becton Dickinson Biosciences) was diluted with phosphate-buffered saline (hereinafter abbreviated as PBS; Sigma) to 0.1-0.01 μg/ml, and the diluted solution was added to a 96-well plate (Becton Dickinson) at 50 μl/well, and allowed to stand overnight at 4° C. On the following day, the supernatant was removed from the plate, and then PBS containing 1% bovine serum albumin (hereinafter abbreviated as BSA; Sigma) was added thereto at 100 μl/well and incubation was performed at 37° C. for 2 hours in a CO2 incubator (Hirasawa).
# The supernatant was removed from each plate and Jurkat cells suspended in RPMI-1640 (Sigma) containing 1 mg/ml BSA were added at 80 μl/well for 2.5×10^5 cells/well. The compound diluted to different concentrations with RPMI-1640 containing 1 mg/ml BSA was immediately added at 10 μl/well, and then 100 nM phorbol myristate acetate (hereinafter abbreviated as PMA; Sigma) in RPMI-1640 containing 1 mg/ml BSA was added at 10 μl/well and the plate was incubated in a CO2 incubator at 37° C. for 45-60 minutes. The supernatant was removed from the plate and each well was washed several times with 100 μl/well of RPMI-1640, after which 50 mM citrate buffer (pH 5.0) containing 3.75 mM p-nitrophenol-N-acetyl-β-D-glucosaminide (Sigma) and 0.25% Triton X-100 (Sigma) were added at 60 μl/well, and the mixture was placed in a CO2 incubator and incubated at 37° C. for 45 minutes. After incubation, 50 mM glycine buffer (pH 10.4) containing 5 mM EDTA was added at 90 μl/well, and the absorbance at 405 nm was measured with an EL340 Automated Microplate Reader (BIO-TEK) to determine the adhered cell count. The concentration of each compound which inhibited the increase in the number of adhered cells by the PMA-stimulation by 50% was recorded as the IC50 (μM).
# [2] = system: human peripheral blood neutrophils; assay: Human peripheral blood neutrophil adhesion system (adhesion to immobilized HUVEC, PMA-stimulated); type: cell-based; details: 0.75 h, concentration inhibiting by 50% the PMA-stimulated increase in the number of adhered BCECF-AM labeled neutrophils on HUVEC immobilized plate, 45 minutes, 37° C.
# Method: Evaluation of Compounds in Human Peripheral Blood Neutrophil Adhesion System
# <Preparation of Human Peripheral Blood Neutrophils>
# To a plastic centrifugation tube containing 100 units of heparin sodium (Shimizu Pharmaceutical) was added 25 ml of fresh blood sampled from a healthy human. After adding and mixing therewith 8 ml of physiological saline (Otsuka Pharmaceutical) containing 6% Dextran (Nacalai), the mixture was allowed to stand at room temperature for 45 minutes for sedimentation of the erythrocytes. The resultant supernatant was transferred to another plastic centrifugation tube and combined with an equivalent volume of phosphate-buffered saline (hereinafter abbreviated as PBS; Sigma), and then centrifuged at 1600 rpm for 7 minutes at room temperature. The obtained hematocyte fraction was suspended in 4 ml of PBS, and the suspension was superposed on 4 ml of Ficoll-Paque™ PLUS (Amersham Biosciences). The resultant bilayer liquid was centrifuged at 2000 rpm for 30 minutes at room temperature, after which the supernatant was removed and the precipitate was suspended in 10 ml of PBS and centrifuged at 1200 rpm for 7 minutes, and the supernatant was removed. The resulting precipitate was suspended in 0.5 ml of PBS again, and then 10 ml of distilled water (Otsuka Pharmaceutical) was added, 0.5 ml of an aqueous solution containing 3 M NaCl was immediately added to restore isotonicity, the mixture was centrifuged at 1200 rpm for 7 minutes, and the obtained precipitate was suspended in PBS containing 1 mg/ml bovine serum albumin (hereinafter abbreviated as BSA; Sigma) again and stored in ice until being used for the experiment.
# <Fluorescent Labeling of Human Peripheral Blood Neutrophils>
# The obtained neutrophils were suspended in PBS containing 1 mg/ml BSA at 2×10^7 cells/ml. BCECF-AM (Dojin) was added to a final concentration of 5 μM, and the mixture was incubated at 37° C. for 45 minutes. It was then rinsed twice with PBS containing 1 mg/ml BSA by centrifugation, suspended again in PBS containing 1 mg/ml BSA at 5×10^7 cells/ml, and stored in ice until use.
# <Preparation of HUVEC Immobilized Plate>
# Human umbilical vein endothelial cells (hereinafter abbreviated as HUVEC) were suspended in MCDB131 medium (Chlorella Industries) containing 10% fetal calf serum and 30 μg/ml endothelial cell growth supplement (Becton Dickinson Bioscience). The suspension was added at 7.5×10^3 cells/well to a 96-well plate (Iwaki) immobilized with type I collagen, and cultured for 3 days in a CO2 incubator (Hirasawa). Upon confirming confluency of the cells, the supernatant was discarded, the plate was rinsed twice with PBS, and then PBS containing 0.1% glutaraldehyde (Kanto Kagaku) was added at 100 μl/well and the HUVECs were immobilized for 5 minutes. The supernatant was discarded and the plate was washed twice with PBS, and then PBS was added at 100 μl/well and the mixture was stored at 4° C. until use.
# To 6.5 ml of RPMI-1640 medium (Sigma) containing 1 mg/ml of BSA were added 0.5 ml of a suspension of BCECF-AM labeled neutrophils at 5×10^7/ml stored in ice, which was mixed, and the mixture was added at 80 μl/well to a HUVEC immobilized plate. To this plate were immediately added 10 μl/well of a solution of the compound diluted at different concentrations with RPMI-1640 containing 1 mg/ml BSA, and 10 μl/well of 100 nM phorbol myristate acetate (hereinafter abbreviated as PMA; Sigma) in RPMI-1640 containing 1 mg/ml BSA, and the mixture was incubated in a CO2 incubator at 37° C. for 45 minutes. The supernatant was removed from the plate, which was then washed several times with RPMI-1640 at 100 μl/well, and then PBS containing 0.1% NP-40 (Calbiochem) was added thereto at 100 μl/well and the fluorescent intensity was measured with and ARVO™SX 1420 multi label counter (Wallac) to determine the number of adhered cells. […]
# [3] = system: Balb/c mice; assay: DSS-induced colitis model; type: in vivo; details: male Balb/c mice; 1-3% DSS for 5-7 days; 30 mg/kg orally once a day for 5-7 successive days
# Source text: Evaluation of Compounds in DSS-Induced Colitis Model
# A 1-3% solution of dextran sulfate sodium (hereinafter abbreviated as DSS; ICN) in purified water (Otsuka Pharmaceutical) was fed freely to 6- to 7-week-old male Balb/c mice (Charles River Japan) for 5-7 days to induce colitis. Disease Activity Index (hereinafter abbreviated as DAI) scored based on fecal hardness, blood content in feces and body weight change, the number of neutrophils infiltrating the colon and the length of the colon were used as indexes to evaluate compounds. Each compound was suspended or dissolved in an aqueous solution containing 0.5% methyl cellulose (Wako), and orally administered at 30 mg/kg once a day, for 5-7 successive days.
SMILES,IC50 [1] [µM],IC50 [2] [µM],"improvement in comparison with the DSS control group (DAI, number of neutrophils infiltrating the colon, length of the colon) [3]","IC50 ([1]; Homo sapiens, Jurkat) [µM]",IC50 ([2]; HUVEC) [µM]
"CCCCN1CCN(c2ccc(N3CCOCC3)cc2C2=CCC(C(C)(C)C)CC2)CC1.Cl (racemic) [Example 18, 4-[3-(4-t-Butylcyclohex-1-enyl)-4-(4-butylpiperazin-1-yl)phenyl]morpholine hydrochloride]",2.6,12.1,particularly good improvement,–,–
"COC1CCN(c2ccc(N3CCN(CC4CC4)CC3)c(C3=CCC(C(C)(C)C)CC3)c2)CC1.Cl (racemic) [Example 20, 1-[2-(4-t-Butylcyclohex-1-enyl)-4-(4-methoxypiperidin-1-yl)phenyl]-4-cyclopropylmethylpiperazine hydrochloride]",7.7,6.1,particularly good improvement,–,–
"CCCCCN1CCN(c2cc(OC)ccc2C2CCC(C)(C)CC2)CC1.Cl [Example 1, 1-[2-(4,4-Dimethylcyclohexyl)-5-methoxyphenyl]-4-pentylpiperazine hydrochloride]",4.5,9.1,particularly good improvement,–,–
"CCC(=O)CN1CCN(c2ccccc2C2CCC(C)(C)CC2)CC1.Cl [Example 17, 1-{4-[2-(4,4-Dimethylcyclohexyl)phenyl]piperazin-1-yl}butan-2-one hydrochloride]",6.1,17.9,particularly good improvement,–,–
"CC1(C)C=C(c2ccccc2N2CCN(CC3CCOCC3)CC2)CC(C)(C)C1.Cl [Example 22, 1-(Tetrahydropyran-4-ylmethyl)-4-[2-(3,3,5,5-tetramethylcyclohex-1-enyl)phenyl]piperazine hydrochloride]",2.2,18.1,particularly good improvement,–,–
"CCCN1CCN(c2ccc(N3CCOCC3)cc2C2=CC(C)(C)CC(C)(C)C2)CC1.Cl [Example 28, 4-[4-(4-Propylpiperazin-1-yl)-3-(3,3,5,5-tetramethylcyclohex-1-enyl)phenyl]morpholine hydrochloride]",3.1,8.5,particularly good improvement,–,–
"CCC(=O)CN1CCN(c2ccc(N3CCOCC3)cc2C2=CCC(CC)(CC)CC2)CC1.Cl [Example 30, 1-{4-[2-(4,4-Diethylcyclohex-1-enyl)-4-morpholin-4-ylphenyl]piperazin-1-yl}butan-2-one hydrochloride]",5.5,16.9,particularly good improvement,–,–
"CCCN1CCN(c2ccccc2C2CC(C)(C)CC(C)(C)C2)CC1.Cl [Example 31, 1-Propyl-4-[2-(3,3,5,5-tetramethylcyclohexyl)phenyl]piperazine hydrochloride]",4.5,9.5,particularly good improvement,–,–
"CC(C)CN1CCN(c2ccccc2C2=CCC3(CC2)CC3)CC1.Cl [Example 34, 1-Isobutyl-4-(2-spiro[2.5]oct-5-en-6-ylphenyl)piperazine hydrochloride]",–,–,particularly good improvement,–,–
"CCCCN1CCN(c2ccccc2/C2=C/CCCCCC2)CC1 [Example 47, 1-Butyl-4-(2-cyclooct-1-enylphenyl)piperazine hydrochloride]",–,–,–,5,11.8
"COCCN1CCN(c2ccc(N3CCC(OC)CC3)cc2C2=CCC3(CCCCC3)CC2)CC1 [Example 48, 1-(2-Methoxyethyl)-4-[4-(4-methoxypiperidin-1-yl)-2-spiro[5.5]undec-2-en-3-ylphenyl]piperazine hydrochloride]",7.9,4.9,–,–,–
"CC1(C)CCC(c2ccccc2N2CCN(Cc3ccoc3)CC2)CC1 [Example 69, 1-[2-(4,4-Dimethylcyclohexyl)phenyl]-4-furan-3-ylmethylpiperazine hydrochloride]",3.6,9.4,–,–,–
"COc1ccc(N2CCN(CC3CCOCC3)CC2)c(C2CC(C)(C)CC(C)(C)C2)c1 [Example 85, 1-[4-Methoxy-2-(3,3,5,5-tetramethylcyclohexyl)phenyl]-4-(tetrahydropyran-4-ylmethyl)piperazine hydrochloride]",6.4,16.4,–,–,–
"CCCCN1CCC(c2ccccc2C2CC(C)(C)CC(C)(C)C2)CC1 [Example 103, 1-Butyl-4-[2-(3,3,5,5-tetramethylcyclohexyl)phenyl]piperidine hydrochloride]",4.5,19.3,–,–,–
"CC1(C)CC(c2ccccc2N2CCN(CC3CC3)CC2)CC(C)(C)C1 [Example 117, 1-Cyclopropylmethyl-4-[2-(3,3,5,5-tetramethylcyclohexyl)phenyl]piperazine methanesulfonate]",4.7,7.1,–,–,–
